Where two headings read alike, the source gives them in different places.

What all share (type): in vivo
Series [1] relates to Alopecurus myosuroides (ALOMY). As to the kind of experiment: Glasshouse assay for herbicidal activity (pre- and post-emergence), percentage phytotoxicity. The settings on record: Alopecurus myosuroides, Rate 250 g/ha, 100%=total damage, 0%=no damage. The essentials:
(§1)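 Damage was rated visually as percent phytotoxicity, 100% meaning total kill, 20 days after pre-emergence application (made one day post-sowing) or 15 days after post-emergence application (made about 12 days post-sowing). Plants were grown under 16 h light, 65% humidity, warm species 24/18° C, cool 20/16° C.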

The test system of the next series is Avena fatua (AVEFA). The series is described as above. The settings on record: Avena fatua, Rate 250 g/ha, 100%=total damage, 0%=no damage. The essentials: as §1
Series [2] has as its system Echinochloa crus-galli (ECHCG). The series is described as above. The settings on record: Echinochloa crus-galli, Rate 250 g/ha, 100%=total damage, 0%=no damage. The essentials:
as §1

The next series has as its system Lolium perenne (LOLPE). The series is described as above. The settings on record: Lolium perenne, Rate 250 g/ha, 100%=total damage, 0%=no damage. An outline of the steps:
as §1

Series [3] relates to Winter Wheat variety 'Hereward'. As to the kind of experiment: Glasshouse assay for crop safety, post-emergence, +/- safener cloquintocet-mexyl (CQC), percentage phytotoxicity. The settings on record: 250 g/ha, evaluated after 13 days, 100=total damage, 0=no damage; for Post-emergence Crop Selectivity, percentage phytotoxicity, Wheat +CQC: with safener cloquintocet-mexyl (CQC) seed treatment 0.5 g/kg seed; for Post-emergence Crop Selectivity, percentage phytotoxicity, Wheat − CQC: without safener cloquintocet-mexyl (CQC). From the text: Test—Glasshouse Assay for Crop Safety.
Seeds of the Winter Wheat variety ‘Hereward’ were seed treated with a wettable powder formulation of the cereal herbicide safener, cloquintocet mexyl, at a rate of 0.5 grams per kilogram of dry seed prior to the initiation of glasshouse testing. Three seeds were sown per 1.5 inch plastic pot into a sandy loam soil at a depth of 1 cm, 8 days prior to application of the test compounds and was watered and grown under controlled conditions in a glasshouse (at 24/16° C., day/night; 14 hours light; 65% humidity). The plants were sprayed Post-emergence with an aqueous spray solution derived from the formulation of the technical active ingredient in acetone/water (50:50) solution containing 0.5% Tween 20 (polyoxyethelyene sorbitan monolaurate, CAS RN 9005-64-5).
The test plants were then grown in a glasshouse under controlled conditions (at 24/16° C., day/night; 14 hours light; 65% humidity) and watered twice daily. After 13 days for pre and post-emergence, the test was evaluated (100=total damage to plant; 0=no damage to plant).

Setting [4] is: post-emergence, 360 h, post-emergence, assessed visually 15 DAA, read-out: Post-emergence herbicidal activity (percentage phytotoxicity) ALOMY POST.
Setting [5] is: pre-emergence, 480 h, pre-emergence, assessed visually 20 DAA, read-out: Pre-emergence herbicidal activity (percentage phytotoxicity) ALOMY PRE.
Setting [6] is: post-emergence, 360 h, post-emergence, assessed visually 15 DAA, read-out: Post-emergence herbicidal activity (percentage phytotoxicity) AVEFA POST.
[7] abbreviates: pre-emergence, 480 h, pre-emergence, assessed visually 20 DAA, read-out: Pre-emergence herbicidal activity (percentage phytotoxicity) AVEFA PRE.
[8] abbreviates: post-emergence, 360 h, post-emergence, assessed visually 15 DAA, read-out: Post-emergence herbicidal activity (percentage phytotoxicity) ECHCG POST.
Setting [9] is: pre-emergence, 480 h, pre-emergence, assessed visually 20 DAA, read-out: Pre-emergence herbicidal activity (percentage phytotoxicity) ECHCG PRE.
Setting [10] is: post-emergence, 360 h, post-emergence, assessed visually 15 DAA, read-out: Post-emergence herbicidal activity (percentage phytotoxicity) LOLPE POST.
Setting [11] is: pre-emergence, 480 h, pre-emergence, assessed visually 20 DAA, read-out: Pre-emergence herbicidal activity (percentage phytotoxicity) LOLPE PRE.

Consider `Cc1cc(C)c(C2C(=O)CC(CC(=O)NC3CC3)C2=O)c(C)c1` (stereo not drawn) [Compound A15], for which the pest or weed control at 250 g/ha is 80% in series [1] (setting [4]); 80% in series [1] (setting [5]); 80% with Avena fatua (AVEFA) (setting [6]); 50% with Avena fatua (AVEFA) (setting [7]); 100% in series [2] (setting [8]); 100% in series [2] (setting [9]). Besides, the pest or weed control at 250 g/ha in the series with Lolium perenne (LOLPE) (setting [10]) and in the series with Lolium perenne (LOLPE) (setting [11]) was 100% throughout. Also, the “Post-emergence Crop Selectivity, percentage phytotoxicity, Wheat +CQC” value in series [3] turned out to be 20%. In series [3], the “Post-emergence Crop Selectivity, percentage phytotoxicity, Wheat − CQC” value was 20%.
Regarding `COCC(C)NC(=O)CC1CC(=O)C(c2c(C)cc(C)cc2C)C1=O` (stereo not drawn) [Compound A16], the pest or weed control at 250 g/ha turned out to be 90% in series [1] (setting [4]); 90% in series [1] (setting [5]); 90% with Avena fatua (AVEFA) (setting [6]); 90% with Avena fatua (AVEFA) (setting [7]); 100% in series [2] (setting [8]); 100% in series [2] (setting [9]). In addition, the pest or weed control at 250 g/ha with Lolium perenne (LOLPE) (setting [10]) and in the series with Lolium perenne (LOLPE) (setting [11]) was 80% in each case. In addition, the “Post-emergence Crop Selectivity, percentage phytotoxicity, Wheat +CQC” value in series [3] turned out to be 30%. Besides, the “Post-emergence Crop Selectivity, percentage phytotoxicity, Wheat − CQC” value in series [3] worked out at 80%.
On to `Cc1cc(C)c(C2C(=O)CC(CC(=O)NC3(c4ccccn4)CC3)C2=O)c(C)c1` (stereo not drawn) [Compound A18], for which the pest or weed control at 250 g/ha in series [1] (setting [4]) stood at 70%; in series [1] (setting [5]) it was 60%; with Avena fatua (AVEFA) (setting [6]) it was 50%; with Avena fatua (AVEFA) (setting [7]), 20%; in series [2] (setting [8]), 70%; in series [2] (setting [9]), 60%. Also, the pest or weed control at 250 g/ha with Lolium perenne (LOLPE) (setting [10]) was found to be 80%; in the series on Lolium perenne (LOLPE) (setting [11]) it was 60%. The “Post-emergence Crop Selectivity, percentage phytotoxicity, Wheat +CQC” value in series [3] is reported as 20%. The “Post-emergence Crop Selectivity, percentage phytotoxicity, Wheat − CQC” value in series [3] amounted to 70%.
Regarding `Cc1cc(C)c(C2C(=O)CC(CC(=O)NCC3CC3)C2=O)c(C)c1` (stereo not drawn) [Compound A19], the pest or weed control at 250 g/ha in series [1] (setting [4]) was found to be 90%; in series [1] (setting [5]), 90%; with Avena fatua (AVEFA) (setting [6]) it was 80%; in the series with Avena fatua (AVEFA) (setting [7]) it was 70%; in series [2] (setting [8]), 80%; in series [2] (setting [9]) it was 90%. The pest or weed control at 250 g/ha in the series on Lolium perenne (LOLPE) (setting [10]) and with Lolium perenne (LOLPE) (setting [11]) was 90% in each case. Besides, in series [3], the “Post-emergence Crop Selectivity, percentage phytotoxicity, Wheat +CQC” value was determined as 40%. Moreover, the “Post-emergence Crop Selectivity, percentage phytotoxicity, Wheat − CQC” value in series [3] was 80%.
With `CCNC(=O)CC1CC(=O)C(c2c(C)cc(C)cc2C)C1=O` (stereo not drawn) [Compound A20], the pest or weed control at 250 g/ha came out at 80% in series [1] (setting [4]); 70% in series [1] (setting [5]); 80% in the series with Avena fatua (AVEFA) (setting [6]); 70% with Avena fatua (AVEFA) (setting [7]); 100% in series [2] (setting [8]); 100% in series [2] (setting [9]). The pest or weed control at 250 g/ha with Lolium perenne (LOLPE) (setting [10]) and with Lolium perenne (LOLPE) (setting [11]) was 100% throughout. In addition, the “Post-emergence Crop Selectivity, percentage phytotoxicity, Wheat +CQC” value in series [3] stood at 20%. In addition, in series [3], the “Post-emergence Crop Selectivity, percentage phytotoxicity, Wheat − CQC” value is on record as 40%.
With `Cc1cc(C)c(C2C(=O)CC(CC(=O)NC3CCCC3)C2=O)c(C)c1` (stereo not drawn) [Compound A21], the pest or weed control at 250 g/ha came out at 80% in series [1] (setting [4]); 70% in series [1] (setting [5]); 70% with Avena fatua (AVEFA) (setting [6]); 50% with Avena fatua (AVEFA) (setting [7]); 80% in series [2] (setting [8]); 80% in series [2] (setting [9]). Also, the pest or weed control at 250 g/ha with Lolium perenne (LOLPE) (setting [10]) and in the series on Lolium perenne (LOLPE) (setting [11]) was 80% in each case. Moreover, the “Post-emergence Crop Selectivity, percentage phytotoxicity, Wheat +CQC” value in series [3] came to 0%. In addition, the “Post-emergence Crop Selectivity, percentage phytotoxicity, Wheat − CQC” value in series [3] is listed as 60%.
On to `Cc1cc(C)c(C2C(=O)CC(CC(=O)N3CCCCC3)C2=O)c(C)c1` (stereo not drawn) [Compound A22], for which the pest or weed control at 250 g/ha in series [1] (setting [4]) turned out to be 80%; in series [1] (setting [5]) it was 60%; with Avena fatua (AVEFA) (setting [6]), 60%; in the series with Avena fatua (AVEFA) (setting [7]), 30%; in series [2] (setting [8]), 90%; in series [2] (setting [9]), 100%. Also, the values for the pest or weed control at 250 g/ha in the series with Lolium perenne (LOLPE) (setting [10]) and with Lolium perenne (LOLPE) (setting [11]) were 80% and 70%, respectively. Further, the “Post-emergence Crop Selectivity, percentage phytotoxicity, Wheat +CQC” value in series [3] is listed as 50%. Moreover, in series [3], the “Post-emergence Crop Selectivity, percentage phytotoxicity, Wheat − CQC” value was 60%.
`CCCN(C)C(=O)CC1CC(=O)C(c2c(C)cc(C)cc2C)C1=O` (stereo not drawn) [Compound A25]: the pest or weed control at 250 g/ha was determined as 70% in series [1] (setting [4]); 70% in series [1] (setting [5]); 70% in the series with Avena fatua (AVEFA) (setting [6]); 70% with Avena fatua (AVEFA) (setting [7]); 90% in series [2] (setting [8]); 80% in series [2] (setting [9]). Besides, the pest or weed control at 250 g/ha with Lolium perenne (LOLPE) (setting [10]) and in the series on Lolium perenne (LOLPE) (setting [11]) was 90% throughout. Also, the “Post-emergence Crop Selectivity, percentage phytotoxicity, Wheat +CQC” value in series [3] is 0%. Moreover, in series [3], the “Post-emergence Crop Selectivity, percentage phytotoxicity, Wheat − CQC” value is given as 40%.
Regarding `CCCNC(=O)CC1CC(=O)C(c2c(C)cc(C)cc2C)C1=O` (stereo not drawn) [Compound A26], the pest or weed control at 250 g/ha in series [1] (setting [4]) amounted to 80%; in series [1] (setting [5]), 80%; with Avena fatua (AVEFA) (setting [6]) it was 80%; in the series with Avena fatua (AVEFA) (setting [7]) it was 70%; in series [2] (setting [8]), 80%; in series [2] (setting [9]) it was 80%. For the same compound, the pest or weed control at 250 g/ha in the series with Lolium perenne (LOLPE) (setting [10]) was 90%; in the series on Lolium perenne (LOLPE) (setting [11]), 100%. The “Post-emergence Crop Selectivity, percentage phytotoxicity, Wheat +CQC” value in series [3] was 40%. The “Post-emergence Crop Selectivity, percentage phytotoxicity, Wheat − CQC” value in series [3] is 70%.
For `CCC(C)(C)NC(=O)CC1CC(=O)C(c2c(C)cc(C)cc2C)C1=O` (stereo not drawn) [Compound A27], the pest or weed control at 250 g/ha came out at 80% in series [1] (setting [4]); 70% in series [1] (setting [5]); 80% in the series with Avena fatua (AVEFA) (setting [6]); 70% with Avena fatua (AVEFA) (setting [7]); 80% in series [2] (setting [8]); 80% in series [2] (setting [9]). The pest or weed control at 250 g/ha with Lolium perenne (LOLPE) (setting [10]) and in the series with Lolium perenne (LOLPE) (setting [11]) was 80% each time. Further, the “Post-emergence Crop Selectivity, percentage phytotoxicity, Wheat +CQC” value in series [3] turned out to be 20%. Moreover, the “Post-emergence Crop Selectivity, percentage phytotoxicity, Wheat − CQC” value in series [3] amounted to 30%.
For the compound `Cc1cc(-c2ncc(Cl)cc2F)cc(C)c1C1C(=O)CC(CC(=O)NC(C)(C)C)C1=O` (stereo not drawn) [Compound A39, N-tert-butyl-2-[3-[4-(5-chloro-3-fluoro-2-pyridyl)-2,6-dimethyl-phenyl]-2,4-dioxo-cyclopentyl]acetamide], the pest or weed control at 250 g/ha (in series [1] (setting [4]); in series [1] (setting [5]); in the series with Avena fatua (AVEFA) (setting [6]); in the series with Avena fatua (AVEFA) (setting [7]); in series [2] (setting [8]); in series [2] (setting [9])) was 100% throughout. The pest or weed control at 250 g/ha in the series on Lolium perenne (LOLPE) (setting [10]) and in the series with Lolium perenne (LOLPE) (setting [11]) was 100% in each case. Moreover, the “Post-emergence Crop Selectivity, percentage phytotoxicity, Wheat +CQC” value in series [3] came to 50%. The “Post-emergence Crop Selectivity, percentage phytotoxicity, Wheat − CQC” value in series [3] worked out at 80%.
Take `C#Cc1cc(C)c(C2C(=O)CC(CC(=O)NC(C)(C)C)C2=O)c(C)c1` (stereo not drawn) [Compound A43]: the pest or weed control at 250 g/ha in series [1] (setting [4]) came to 100%; in series [1] (setting [5]), 100%; in the series with Avena fatua (AVEFA) (setting [6]) it was 90%; in the series with Avena fatua (AVEFA) (setting [7]) it was 100%; in series [2] (setting [8]), 90%; in series [2] (setting [9]), 100%. The results for the pest or weed control at 250 g/ha with Lolium perenne (LOLPE) (setting [10]) and in the series with Lolium perenne (LOLPE) (setting [11]) were 90% and 100%, respectively. For the same compound, in series [3], the “Post-emergence Crop Selectivity, percentage phytotoxicity, Wheat +CQC” value is 50%. In addition, the “Post-emergence Crop Selectivity, percentage phytotoxicity, Wheat − CQC” value in series [3] came out at 90%.

The values are drawn from US10206394B2, “Herbicidal compounds” (Syngenta Participations AG, priority 2014, dated 2019).
